Assay: Effect on oxygen consumption in fasted rats (metabolic cages)
Assay type: in vivo, Albinoratten
Conditions: placebo-corrected; for Sauerstoffverbrauch 1. bis 3. Stunde: mean of hours 1-3 after dosing; for Sauerstoffverbrauch 1. bis 12. Stunde: mean of hours 1-12 after dosing
Protocol: Wirkung auf den Sauerstoffverbrauch
Gruppen von 6 männlichen Albinoratten im Gewicht von 160-180 g wurden nach 24 Stunden Fasten in Stoffwechselkäfige gesetzt. Die Käfige wurden mit konstant 6 Liter Raumluft/Minute, die bei einem Taupunkt von 11°C äquilibriert wurden belüftet. Von der Abluft wurde nach erneuter Aequilibrierung während Perioden von jeweils 14 Minuten Proben gesammelt und der Sauerstoff- und CO₂-Gehalt analysiert. Nach einer Anpassungszeit von 4 Stunden erhielten die Tiere entweder Placebo (5% Gummi arabicum) oder die Testsubstanz, nämlich BAP (suspendiert in 5% Gummi arabicum) per os oder intraperitoneal. Danach wurden 12 Stunden lang die Bestimmungen durchgeführt. In der nachfolgenden Tabelle ist der gemittelte Sauerstoffverbrauch nach Medikation während der ersten 3 Stunden und der gesamten Versuchsdauer (12 Stunden) als Prozentsatz des Sauerstoffverbrauchs der Anpassungsperiode (100%) angegeben, wobei entsprechende Korrekturen für Aenderungen in der Placebo-Gruppe berücksichtigt wurden, Tabelle

In the case of `OCCOc1ccc(CCN(C[C@H](O)c2cccc(Cl)c2)C[C@H](O)c2cccc(Cl)c2)cc1` [BAP, 4-[2-[Bis[(R)-β-hydroxy-3-chlorphenäthyl]amino]äthyl]phenoxyäthanol], the “Sauerstoffverbrauch 1. bis 3. Stunde” value (0,3 µM/kg i.p.) is reported as 134 % vom Wert der Vorperiode, the “Sauerstoffverbrauch 1. bis 12. Stunde” value (0,3 µM/kg i.p.) is reported as 108 % vom Wert der Vorperiode and the “Sauerstoffverbrauch 1. bis 3. Stunde” value (0,3 µM/kg p.os) is reported as 114 % vom Wert der Vorperiode. For the same compound, the “Sauerstoffverbrauch 1. bis 12. Stunde” value (0,3 µM/kg p.os) was 105 % vom Wert der Vorperiode, the “Sauerstoffverbrauch 1. bis 3. Stunde” value (1 µM/kg i.p.) was 172 % vom Wert der Vorperiode and the “Sauerstoffverbrauch 1. bis 12. Stunde” value (1 µM/kg i.p.) was 121 % vom Wert der Vorperiode. For the same compound, the “Sauerstoffverbrauch 1. bis 3. Stunde” value (1 µM/kg p.os) was 156 % vom Wert der Vorperiode, the “Sauerstoffverbrauch 1. bis 12. Stunde” value (1 µM/kg p.os) was 122 % vom Wert der Vorperiode and the “Sauerstoffverbrauch 1. bis 3. Stunde” value (3 µM/kg i.p.) was 174 % vom Wert der Vorperiode. The “Sauerstoffverbrauch 1. bis 12. Stunde” value (3 µM/kg i.p.) was 134 % vom Wert der Vorperiode, the “Sauerstoffverbrauch 1. bis 3. Stunde” value (3 µM/kg p.os) was 179 % vom Wert der Vorperiode and the “Sauerstoffverbrauch 1. bis 12. Stunde” value (3 µM/kg p.os) was 137 % vom Wert der Vorperiode. The “Sauerstoffverbrauch 1. bis 3. Stunde” value (10 µM/kg i.p.) was 186 % vom Wert der Vorperiode, the “Sauerstoffverbrauch 1. bis 12. Stunde” value (10 µM/kg i.p.) was 154 % vom Wert der Vorperiode and the “Sauerstoffverbrauch 1. bis 3. Stunde” value (10 µM/kg p.os) was 191 % vom Wert der Vorperiode. For the same compound, the “Sauerstoffverbrauch 1. bis 12. Stunde” value (10 µM/kg p.os) was 157 % vom Wert der Vorperiode.

From patent publication EP0386603A2, “Bisphenethanolamine” (F. HOFFMANN-LA ROCHE AG, priority 1989, dated 1990)
